# Laboratory results taken from ChEMBL document CHEMBL3046242, “Synthesis and evaluation of thiopyrano[3,4-c]quinoline-9-carboxamide derivatives as inhibitors of poly(ADP-ribose) polymerase-1 (PARP-1)” (Med Chem Res, 2012).
# How the values were obtained:
# [1] = target: T1, Poly [ADP-ribose] polymerase 1 (Homo sapiens, UniProt P09874); assay: Inhibition of PARP-1 (unknown origin) expressed in CHO-K1 cells assessed as depletion of NAD(P)H after 2 hr by CCK-8 assay; type: cell-based
# [2] = target: T1, Poly [ADP-ribose] polymerase 1; assay: Inhibition of PARP-1 (unknown origin) assessed as inhibition of biotinylated poly(ADP-ribose) onto histone proteins after 30 min by colorimetry
# [3] = Half life in Homo sapiens (human) liver microsomes at 1 uM by LC/MS/MS analysis; type: ADME
# [4] = Half life in Rattus norvegicus Sprague-Dawley (rat) at 5 mg/kg, iv; type: ADME, organism-based; parameters: dose 5 mg/kg, route intravenous; details: in vivo
# [5] = Clearance in Rattus norvegicus Sprague-Dawley (rat) at 5 mg/kg, iv; type: ADME, organism-based; parameters: dose 5 mg/kg, route intravenous; details: in vivo
# [6] = AUC (0 to infinity) in Rattus norvegicus Sprague-Dawley (rat) at 5 mg/kg, iv; type: ADME, organism-based; parameters: time infinity, dose 5 mg/kg, route intravenous; details: plasma
# [7] = Solubility of the compound in water; type: physicochemical
# T1 sequence (P09874 whole entry): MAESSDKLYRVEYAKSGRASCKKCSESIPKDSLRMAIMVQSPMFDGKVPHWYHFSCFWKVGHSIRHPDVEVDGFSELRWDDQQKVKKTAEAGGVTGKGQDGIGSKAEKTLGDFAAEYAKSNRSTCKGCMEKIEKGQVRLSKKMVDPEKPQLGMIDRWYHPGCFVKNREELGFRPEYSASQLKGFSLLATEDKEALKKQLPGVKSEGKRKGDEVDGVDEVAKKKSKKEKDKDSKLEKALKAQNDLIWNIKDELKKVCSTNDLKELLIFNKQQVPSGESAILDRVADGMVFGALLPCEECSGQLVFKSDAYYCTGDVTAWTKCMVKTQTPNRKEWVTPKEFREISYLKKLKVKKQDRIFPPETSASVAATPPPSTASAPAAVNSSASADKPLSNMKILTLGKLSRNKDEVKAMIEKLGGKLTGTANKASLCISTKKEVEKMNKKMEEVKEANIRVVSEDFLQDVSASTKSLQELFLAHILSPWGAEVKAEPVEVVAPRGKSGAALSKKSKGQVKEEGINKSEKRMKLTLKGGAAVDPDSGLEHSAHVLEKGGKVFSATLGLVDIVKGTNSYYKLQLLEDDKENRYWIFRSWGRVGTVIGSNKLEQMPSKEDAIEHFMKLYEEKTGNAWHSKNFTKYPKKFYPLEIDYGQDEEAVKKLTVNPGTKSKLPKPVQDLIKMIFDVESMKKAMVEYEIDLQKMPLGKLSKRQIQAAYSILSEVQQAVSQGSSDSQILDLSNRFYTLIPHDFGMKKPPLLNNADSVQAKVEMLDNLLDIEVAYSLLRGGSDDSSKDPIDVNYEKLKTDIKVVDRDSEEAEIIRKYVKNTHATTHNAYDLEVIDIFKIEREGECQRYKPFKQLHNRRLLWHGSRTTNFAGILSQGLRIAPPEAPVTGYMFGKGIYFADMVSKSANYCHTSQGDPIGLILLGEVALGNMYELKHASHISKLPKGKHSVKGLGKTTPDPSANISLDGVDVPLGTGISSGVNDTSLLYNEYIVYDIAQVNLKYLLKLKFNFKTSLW
ED50 [1] [nM],IC50 [2] [nM],SMILES,other results
2000,47,CCN1CCN(C(=O)c2ccc3[nH]c(=O)c4c(c3c2)CCSC4)CC1,–
4020,166,O=C(NCCN1CCN(c2ccccc2)CC1)c1ccc2[nH]c(=O)c3c(c2c1)CCSC3,–
320,68,O=C(c1ccc2[nH]c(=O)c3c(c2c1)CCSC3)N1CCN(C2CCCCC2)CC1,–
840,65,CC(C)CCN1CCN(C(=O)c2ccc3[nH]c(=O)c4c(c3c2)CCSC4)CC1,half-life at 1 µM [3]: 15.9 min
–,78,O=C(O)c1ccc2[nH]c(=O)c3c(c2c1)CCSC3,–
2910,94,CCCCCCN1CCN(C(=O)c2ccc3[nH]c(=O)c4c(c3c2)CCSC4)CC1,–
460,40,CCCC(C)N1CCN(C(=O)c2ccc3[nH]c(=O)c4c(c3c2)CCSC4)CC1 (configuration not stated),–
2190,19,O=C(c1ccc2[nH]c(=O)c3c(c2c1)CCSC3)N1CCN(CCc2ccccc2)CC1,–
–,–,O=C1CC2(CCCC2)CC(=O)N1CCCCN1CCN(c2ncccn2)CC1 [BUSPIRONE],half-life at 1 µM [3]: 4 min
–,536,CCOC(=O)c1ccc2[nH]c(=O)c3c(c2c1)CCSC3,–
2510,187,O=C(c1ccc2[nH]c(=O)c3c(c2c1)CCSC3)N1CCN(Cc2ccccc2)CC1,–
> 30000,27,NCCCCNC(=O)c1ccc2[nH]c(=O)c3c(c2c1)CCSC3,–
550,47,O=C(c1ccc2[nH]c(=O)c3c(c2c1)CCSC3)N1CCN(C2CCCC2)CC1,half-life at 1 µM [3]: 14.5 min
2810,58,O=C(NCCN1CCCCC1)c1ccc2[nH]c(=O)c3c(c2c1)CCSC3,–
1290,234,O=C(c1ccc2[nH]c(=O)c3c(c2c1)CCSC3)N1CCN(c2ccccc2)CC1,–
500,67,O=C(c1ccc2[nH]c(=O)c3c(c2c1)CCSC3)N1CCN(C2CCCCCC2)CC1,–
> 30000,30,NCCCNC(=O)c1ccc2[nH]c(=O)c3c(c2c1)CCSC3,–
> 30000,17,NCCNC(=O)c1ccc2[nH]c(=O)c3c(c2c1)CCSC3,–
2410,134,O=C(c1ccc2[nH]c(=O)c3c(c2c1)CCSC3)N1CCN(CCCC(F)(F)F)CC1,–
> 30000,44,O=C(NCCN1CCN(c2ccncc2)CC1)c1ccc2[nH]c(=O)c3c(c2c1)CCSC3,–
610,79,CCCCCN1CCN(C(=O)c2ccc3[nH]c(=O)c4c(c3c2)CCSC4)CC1,–
770,42,CCCCN1CCN(C(=O)c2ccc3[nH]c(=O)c4c(c3c2)CCSC4)CC1,–
> 30000,36,O=C(NCCN1CCNCC1)c1ccc2[nH]c(=O)c3c(c2c1)CCSC3,–
1260,175,O=C(c1ccc2[nH]c(=O)c3c(c2c1)CCSC3)N1CCCCC1,–
> 30000,8,O=C(c1ccc2[nH]c(=O)c3c(c2c1)CCSC3)N1CCNCC1,–
540,45,CCCN1CCN(C(=O)c2ccc3[nH]c(=O)c4c(c3c2)CCSC4)CC1,half-life at 1 µM [3]: 41.7 min; half-life [4]: 84 min; clearance [5]: 63.3 mL/min/kg; AUC(0-inf) [6]: 1300 ng·h/mL; solubility [7]: > 1000 µg/mL
2530,188,CN1CCN(C(=O)c2ccc3[nH]c(=O)c4c(c3c2)CCSC4)CC1,–
> 30000,60,O=C(NCCN1CCOCC1)c1ccc2[nH]c(=O)c3c(c2c1)CCSC3,–
> 30000,20,O=C(c1ccc2[nH]c(=O)c3c(c2c1)CCSC3)N1CCN(c2ccncc2)CC1,–
